Data from patent US20230157952A1, “METHOD FOR IMPROVING THE STABILITY OF A PHARMACEUTICAL COMPOSITION COMPRISING A HIGH PENETRATION DRUG, AND THE PHARMACEUTICAL COMPOSITION OBTAINED THEREFROM” (Techfields Inc., priority 2020, published 2023).

Test: Effect of solvent on the stability of the solution (purity at various pH values and temperature)
Assay type: physicochemical
Settings: 7% solution

Compound: CCN(CC)CCOC(=O)c1ccccc1OC(C)=O.Cl
- Purity(%) at day 0 (solvent 15% ethanol, pH 1.0, day 0): 99.1 ± 0.2%
- Purity(%) at day 14 (5° C.) (solvent 15% ethanol, pH 1.0, day 14, 5° C.): 92.1 ± 0.3%
- Purity(%) at day 14 (25° C.) (solvent 15% ethanol, pH 1.0, day 14, 25° C.): 62.7 ± 0.3%
- Purity(%) at day 14 (40° C.) (solvent 15% ethanol, pH 1.0, day 14, 40° C.): 0%
- Purity (%) at day 14 (60° C.) (solvent 15% ethanol, pH 1.0, day 14, 60° C.): 0%
- Purity(%) at day 0 (solvent 15% ethanol, pH 2.0, day 0): 99.4 ± 0.2%
- Purity(%) at day 14 (5° C.) (solvent 15% ethanol, pH 2.0, day 14, 5° C.): 96.5 ± 0.2%
- Purity(%) at day 14 (25° C.) (solvent 15% ethanol, pH 2.0, day 14, 25° C.): 83.8 ± 0.3%
- Purity(%) at day 14 (40° C.) (solvent 15% ethanol, pH 2.0, day 14, 40° C.): 0%
- Purity (%) at day 14 (60° C.) (solvent 15% ethanol, pH 2.0, day 14, 60° C.): 0%
- Purity(%) at day 0 (solvent 15% ethanol, pH 3.0, day 0): 99.5 ± 0.1%
- Purity(%) at day 14 (25° C.) (solvent 15% ethanol, pH 3.0, day 14, 25° C.): 88.8 ± 0.2%
- Purity(%) at day 14 (40° C.) (solvent 15% ethanol, pH 3.0, day 14, 40° C.): 2.9 ± 0.3%
- Purity (%) at day 14 (60° C.) (solvent 15% ethanol, pH 3.0, day 14, 60° C.): 0%
- Purity(%) at day 0 (solvent 15% ethanol, pH 3.7, day 0): 99.6 ± 0.1%
- Purity(%) at day 14 (25° C.) (solvent 15% ethanol, pH 3.7, day 14, 25° C.): 96.2 ± 0.3%
- Purity(%) at day 14 (40° C.) (solvent 15% ethanol, pH 3.7, day 14, 40° C.): 15.2 ± 0.3%
- Purity (%) at day 14 (60° C.) (solvent 15% ethanol, pH 3.7, day 14, 60° C.): 0%
- Purity(%) at day 0 (solvent 15% ethanol, pH 4.0, day 0): 99.7 ± 0.2%
- Purity(%) at day 14 (25° C.) (solvent 15% ethanol, pH 4.0, day 14, 25° C.): 96.7 ± 0.2%
- Purity(%) at day 14 (40° C.) (solvent 15% ethanol, pH 4.0, day 14, 40° C.): 15.7 ± 0.3%
- Purity (%) at day 14 (60° C.) (solvent 15% ethanol, pH 4.0, day 14, 60° C.): 0%
- Purity(%) at day 0 (solvent 15% ethanol, pH 4.3, day 0): 99.7 ± 0.1%
- Purity(%) at day 14 (25° C.) (solvent 15% ethanol, pH 4.3, day 14, 25° C.): 96.7 ± 0.1%
- Purity(%) at day 14 (40° C.) (solvent 15% ethanol, pH 4.3, day 14, 40° C.): 13.6 ± 0.3%
- Purity (%) at day 14 (60° C.) (solvent 15% ethanol, pH 4.3, day 14, 60° C.): 0%
- Purity(%) at day 0 (solvent 15% ethanol, pH 4.6, day 0): 99.6 ± 0.2%
- Purity(%) at day 14 (25° C.) (solvent 15% ethanol, pH 4.6, day 14, 25° C.): 96.5 ± 0.2%
- Purity(%) at day 14 (40° C.) (solvent 15% ethanol, pH 4.6, day 14, 40° C.): 4.1 ± 0.3%
- Purity (%) at day 14 (60° C.) (solvent 15% ethanol, pH 4.6, day 14, 60° C.): 0%
- Purity(%) at day 0 (solvent 15% ethanol, pH 5.0, day 0): 99.5 ± 0.2%
- Purity(%) at day 14 (5° C.) (solvent 15% ethanol, pH 5.0, day 14, 5° C.): 97.4 ± 0.2%
- Purity(%) at day 14 (25° C.) (solvent 15% ethanol, pH 5.0, day 14, 25° C.): 92.9 ± 0.2%
- Purity(%) at day 14 (40° C.) (solvent 15% ethanol, pH 5.0, day 14, 40° C.): 1.3 ± 0.3%
- Purity (%) at day 14 (60° C.) (solvent 15% ethanol, pH 5.0, day 14, 60° C.): 0%
- Purity(%) at day 0 (solvent 15% ethanol, pH 6.0, day 0): 99.4 ± 0.2%
- Purity(%) at day 14 (5° C.) (solvent 15% ethanol, pH 6.0, day 14, 5° C.): 92.3 ± 0.3%
- Purity(%) at day 14 (25° C.) (solvent 15% ethanol, pH 6.0, day 14, 25° C.): 84.9 ± 0.3%
- Purity(%) at day 14 (40° C.) (solvent 15% ethanol, pH 6.0, day 14, 40° C.): 0%
- Purity (%) at day 14 (60° C.) (solvent 15% ethanol, pH 6.0, day 14, 60° C.): 0%
- Purity(%) at day 0 (solvent 15% ethanol, pH 7.0, day 0): 99.2 ± 0.1%
- Purity(%) at day 14 (5° C.) (solvent 15% ethanol, pH 7.0, day 14, 5° C.): 87.9 ± 0.3%
- Purity(%) at day 14 (25° C.) (solvent 15% ethanol, pH 7.0, day 14, 25° C.): 60.2 ± 0.3%
- Purity(%) at day 14 (40° C.) (solvent 15% ethanol, pH 7.0, day 14, 40° C.): 0%
- Purity (%) at day 14 (60° C.) (solvent 15% ethanol, pH 7.0, day 14, 60° C.): 0%
- Purity(%) at day 0 (solvent 15% ethanol, pH 8.0, day 0): 99.1 ± 0.2%
- Purity(%) at day 14 (5° C.) (solvent 15% ethanol, pH 8.0, day 14, 5° C.): 58.7 ± 0.4%
- Purity(%) at day 14 (25° C.) (solvent 15% ethanol, pH 8.0, day 14, 25° C.): 22.7 ± 0.3%
- Purity(%) at day 14 (40° C.) (solvent 15% ethanol, pH 8.0, day 14, 40° C.): 0%
- Purity (%) at day 14 (60° C.) (solvent 15% ethanol, pH 8.0, day 14, 60° C.): 0%
- Purity(%) at day 0 (solvent 25% ethanol, pH 1.0, day 0): 99.1 ± 0.3%
- Purity(%) at day 14 (5° C.) (solvent 25% ethanol, pH 1.0, day 14, 5° C.): 92.3 ± 0.3%
- Purity(%) at day 14 (25° C.) (solvent 25% ethanol, pH 1.0, day 14, 25° C.): 63.5 ± 0.3%
- Purity(%) at day 14 (40° C.) (solvent 25% ethanol, pH 1.0, day 14, 40° C.): 0%
- Purity (%) at day 14 (60° C.) (solvent 25% ethanol, pH 1.0, day 14, 60° C.): 0%
- Purity(%) at day 0 (solvent 25% ethanol, pH 2.0, day 0): 99.4 ± 0.3%
- Purity(%) at day 14 (5° C.) (solvent 25% ethanol, pH 2.0, day 14, 5° C.): 96.9 ± 0.3%
- Purity(%) at day 14 (25° C.) (solvent 25% ethanol, pH 2.0, day 14, 25° C.): 84.2 ± 0.3%
- Purity(%) at day 14 (40° C.) (solvent 25% ethanol, pH 2.0, day 14, 40° C.): 0%
- Purity (%) at day 14 (60° C.) (solvent 25% ethanol, pH 2.0, day 14, 60° C.): 0%
- Purity(%) at day 0 (solvent 25% ethanol, pH 3.0, day 0): 99.5 ± 0.2%
- Purity(%) at day 14 (25° C.) (solvent 25% ethanol, pH 3.0, day 14, 25° C.): 88.9 ± 0.2%
- Purity(%) at day 14 (40° C.) (solvent 25% ethanol, pH 3.0, day 14, 40° C.): 2.9 ± 0.2%
- Purity (%) at day 14 (60° C.) (solvent 25% ethanol, pH 3.0, day 14, 60° C.): 0%
- Purity(%) at day 0 (solvent 25% ethanol, pH 3.7, day 0): 99.6 ± 0.1%
- Purity(%) at day 14 (5° C.) (solvent 25% ethanol, pH 3.7, day 14, 5° C.): 99.1 ± 0.2%
- Purity(%) at day 14 (25° C.) (solvent 25% ethanol, pH 3.7, day 14, 25° C.): 96.3 ± 0.2%
- Purity(%) at day 14 (40° C.) (solvent 25% ethanol, pH 3.7, day 14, 40° C.): 15.1 ± 0.3%
- Purity (%) at day 14 (60° C.) (solvent 25% ethanol, pH 3.7, day 14, 60° C.): 0%
- Purity(%) at day 0 (solvent 25% ethanol, pH 4.0, day 0): 99.8 ± 0.1%
- Purity(%) at day 14 (5° C.) (solvent 25% ethanol, pH 4.0, day 14, 5° C.): 99.1 ± 0.1%
- Purity(%) at day 14 (25° C.) (solvent 25% ethanol, pH 4.0, day 14, 25° C.): 96.9 ± 0.1%
- Purity(%) at day 14 (40° C.) (solvent 25% ethanol, pH 4.0, day 14, 40° C.): 15.2 ± 0.3%
- Purity (%) at day 14 (60° C.) (solvent 25% ethanol, pH 4.0, day 14, 60° C.): 0%
- Purity(%) at day 0 (solvent 25% ethanol, pH 4.3, day 0): 99.7 ± 0.2%
- Purity(%) at day 14 (5° C.) (solvent 25% ethanol, pH 4.3, day 14, 5° C.): 99.1 ± 0.2%
- Purity(%) at day 14 (25° C.) (solvent 25% ethanol, pH 4.3, day 14, 25° C.): 96.8 ± 0.2%
- Purity(%) at day 14 (40° C.) (solvent 25% ethanol, pH 4.3, day 14, 40° C.): 13.8 ± 0.3%
- Purity (%) at day 14 (60° C.) (solvent 25% ethanol, pH 4.3, day 14, 60° C.): 0%
- Purity(%) at day 0 (solvent 25% ethanol, pH 4.6, day 0): 99.7 ± 0.2%
- Purity(%) at day 14 (25° C.) (solvent 25% ethanol, pH 4.6, day 14, 25° C.): 96.5 ± 0.2%
- Purity(%) at day 14 (40° C.) (solvent 25% ethanol, pH 4.6, day 14, 40° C.): 4.2 ± 0.1%
- Purity (%) at day 14 (60° C.) (solvent 25% ethanol, pH 4.6, day 14, 60° C.): 0%
- Purity(%) at day 0 (solvent 25% ethanol, pH 5.0, day 0): 99.6 ± 0.2%
- Purity(%) at day 14 (25° C.) (solvent 25% ethanol, pH 5.0, day 14, 25° C.): 92.8 ± 0.2%
- Purity(%) at day 14 (40° C.) (solvent 25% ethanol, pH 5.0, day 14, 40° C.): 1.6 ± 0.1%
- Purity (%) at day 14 (60° C.) (solvent 25% ethanol, pH 5.0, day 14, 60° C.): 0%
- Purity(%) at day 0 (solvent 25% ethanol, pH 6.0, day 0): 99.5 ± 0.3%
- Purity(%) at day 14 (5° C.) (solvent 25% ethanol, pH 6.0, day 14, 5° C.): 92.7 ± 0.2%
- Purity(%) at day 14 (25° C.) (solvent 25% ethanol, pH 6.0, day 14, 25° C.): 85.0 ± 0.3%
- Purity(%) at day 14 (40° C.) (solvent 25% ethanol, pH 6.0, day 14, 40° C.): 0%
- Purity (%) at day 14 (60° C.) (solvent 25% ethanol, pH 6.0, day 14, 60° C.): 0%
- Purity(%) at day 0 (solvent 25% ethanol, pH 7.0, day 0): 99.4 ± 0.3%
- Purity(%) at day 14 (5° C.) (solvent 25% ethanol, pH 7.0, day 14, 5° C.): 88.0 ± 0.3%
- Purity(%) at day 14 (25° C.) (solvent 25% ethanol, pH 7.0, day 14, 25° C.): 61.2 ± 0.3%
- Purity(%) at day 14 (40° C.) (solvent 25% ethanol, pH 7.0, day 14, 40° C.): 0%
- Purity (%) at day 14 (60° C.) (solvent 25% ethanol, pH 7.0, day 14, 60° C.): 0%
- Purity(%) at day 0 (solvent 25% ethanol, pH 8.0, day 0): 99.1 ± 0.3%
- Purity(%) at day 14 (5° C.) (solvent 25% ethanol, pH 8.0, day 14, 5° C.): 59.8 ± 0.3%
- Purity(%) at day 14 (25° C.) (solvent 25% ethanol, pH 8.0, day 14, 25° C.): 23.1 ± 0.3%
- Purity(%) at day 14 (40° C.) (solvent 25% ethanol, pH 8.0, day 14, 40° C.): 0%
